# Results taken from patent US7906486B2, “Method of treating or preventing tissue deterioration, injury or damage due to disease of mucosa” (SciClone Pharmaceuticals, Inc., priority 2007, dated 2011).
# Tested on: oral mucositis induced by fractionated radiation (eight doses of 7.5 Gy, left buccal cheek pouch)
# Test: Oral mucositis induced by fractionated radiation in hamsters, mucositis scoring (Example 3, SCI-03)
# Format: in vivo, Syrian Golden Hamsters
# Conditions: for % Days >=3 / Days <3 / Days >=3 / Chi Sq v control: 100 ug/kg, qd; for Days >=3: animal days with mucositis score of three or more; for Chi Sq v control: days with score >=3
# From the text: The fractionated radiation model in hamsters, developed by the Principal Investigator, has proven to be an accurate, efficient and cost-effective technique to provide a preliminary evaluation of anti-mucositis compounds. In this model, hamsters receive 8 doses of 7.5 Gy to the left cheek pouch on days 0, 1, 2, 3, […], rather than the single dose of 40 Gy on day 0 that is used in acute radiation studies. The rationale for using this scheduling for the radiation is that it more closely resembles the clinical courses of radiotherapy given to cancer patients. The course of mucositis in this model is well defined and results in peak mucositis scores approximately 14-16 days following radiation. Mortality (generally from the side effects of anesthesia) in the fractionated radiation model is slightly higher than that seen in the acute radiation model and group sizes are increased (to 10 per group) to allow for this.
# (§1) Forty (40) male Syrian Golden Hamsters were given eight doses of radiation of 7.5 Gy each directed to their left buccal cheek pouch on days 0, 1, 2, 3, 6, 7, 8 and 9. This was accomplished by anesthetizing the animals and everting the left buccal pouch, while protecting the rest of the animal's bodies with a lead shield. Test materials were given by sub-cutaneous injection once daily as detailed in Table 9. Mucositis was evaluated clinically starting on day 7, and continuing on alternate days until day 35. Test articles were given as outlined Table 9, Groups 1 and 2 were dosed from Day −1 to Day 29, Group 3 was dosed on the days of radiation only, Group 4 was dosed on the days between Day −15 and Day 29 on which no radiation is given (Day −1, Day 4, Day 5 and Day 10 to Day 29).
# The effect on mucositis of each drug treatment compared to placebo was assessed according to the following parameters:
# On each evaluation day, the number of animals with a blinded mucositis score of ≧3 in each drug treatment group was compared to the control group. Differences were compared on a cumulative basis and statistical significance was determined by chi-square analysis. Efficacy, in this analysis, is defined by a significant reduction in the number of days that a group of animals had ulcerations (scores ≧3) when compared to the control group.
# For each evaluation day the scores of the control group were compared to those of the treated groups using non-parametric rank sum analysis. Treatment success was considered as a statistically significant lowering of scores in the treated group on 2 or more days from day 6 to day 28.
# as §1, with “daily at 8:00 am” for “daily”, “9. […]” for “9. Mucositis was evaluated clinically starting on day 7, and continuing on alternate days until day 35.”, “2 was” for “2 were”, “radiation only (days 0-3 and days 6-10),” for “radiation only,”, “Day −1” for “Day −15”, “Day 4 to” for “Day 4,”
# Radiation was generated with a Philips 160 kVp (kilovolt potential) (18.75-ma) X-ray source at a focal distance of 30 cm, with a 3.0 mm hardened Al filtration system. Irradiation was targeted to the left buccal pouch mucosa at a rate of 3.32 Gy/minute. […] Using this calibration, the energy received by each animal at each radiation dose was approximately 64.5 nC (nanoCoulombs) at each time point. Prior to irradiation, animals were anesthetized with an intraperitoneal injection of ketamine (160 mg/kg) and xylazine (8 mg/kg). The left buccal pouch was everted, fixed and isolated using a lead shield.
# The mucositis score, weight change and survival were measured throughout the study as described above. […]
# [1] = 100 ug/kg from day -1 to day 29
# [2] = 100 ug/kg on the days of radiation (0-3 and 6-9)
compound,measurement,setting,value
"N[C@H](CCC(=O)N[C@@H](Cc1c[nH]c2ccccc12)C(=O)O)C(=O)O [SCV-07, γ-D-glutamyl-L-tryptophan]",day of peak mean mucositis score,[1],19
same,peak mean mucositis score,[1],3.3
same,peak mean mucositis score,"100 ug/kg on days 1, 4, 5 and 10 through 29",2.9
same,day of peak mean mucositis score,[2],17
same,peak mean mucositis score,[2],3.0
same,% Days >=3,sc Days 0 to 3 and 6 to 9,24%
same,Days <3,sc Days 0 to 3 and 6 to 9,228
same,% Days >=3,"sc Days -1, 4, 5 10 to 29",30.7%
same,Days <3,"sc Days -1, 4, 5 10 to 29",208
same,% Days >=3,sc Days -1 to 29,32.7%
same,Days <3,sc Days -1 to 29,202
same,Days >=3,sc Days 0 to 3 and 6 to 9,72
same,Days >=3,"sc Days -1, 4, 5 10 to 29",92
same,Days >=3,sc Days -1 to 29,98
same,Chi Sq v control,sc Days 0 to 3 and 6 to 9,0.3160
same,Chi Sq v control,"sc Days -1, 4, 5 10 to 29",0.2300
same,Chi Sq v control,sc Days -1 to 29,0.575
